According to patent US20190055576A1, “USE OF HERBICIDE-TOLERANT PROTEIN” (BEIJING DABEINONG TECHNOLOGY GROUP CO., LTD., priority 2016, published 2019):

Columns and labels:
Format in all cases: in vivo
[1] = tested on: wild-type Arabidopsis thaliana plants; experiment: Herbicide tolerance of wild-type Arabidopsis thaliana plants, resistance classes counted after spraying; conditions: 1-fold field concentration (g ai/ha: Sulfometuron-methyl 30, iodosulfuron-methyl 10, mesosulfuron 14, oxasulfuron 60), 14 days after spraying
Description: (§1) T1 transformants were initially selected from the background of untransformed seeds using a glufosinate selection scheme. About 40000 T1 seeds were screened, and 380 T1 positive transformants (PAT gene) were identified with a transformation efficiency of about 0.95%. The plants that were transformed with the recombinant expression vector DBN100632 were Arabidopsis thaliana plants having an ALT-1-01 nucleotide sequence located in the cytoplasm introduced (At cytoplasmic ALT-1-01), and the plants that were transformed with the recombinant expression vector DBN100631 were Arabidopsis thaliana plants having an ALT-1-01 nucleotide sequence located in the chloroplast introduced (At chloroplastic ALT-1-01); the plants that were transformed with the recombinant expression vector DBN100634 were Arabidopsis thaliana plants having an ALT-2-01 nucleotide sequence located in the cytoplasm introduced (At cytoplasmic ALT-2-01), and the plants that were transformed with the recombinant expression vector DBN100633 were Arabidopsis thaliana plants having an ALT-2-01 nucleotide sequence located in the chloroplast introduced (At chloroplastic ALT-2-01); and the plants that were transformed with the recombinant expression vector DBN100636 were Arabidopsis thaliana plants having an ALT-3-01 nucleotide sequence located in the cytoplasm introduced (At cytoplasmic ALT-3-01), and the plants that were transformed with the recombinant expression vector DBN100635 were Arabidopsis thaliana plants having an ALT-3-01 nucleotide sequence located in the chloroplast introduced (At chloroplastic ALT-3-01). The herbicide tolerance effects of At cytoplasmic ALT-1-01 T1 plants, At chloroplastic ALT-1-01 T1 plants, At cytoplasmic ALT-2-01 T1 plants, At chloroplastic ALT-2-01 T1 plants, At cytoplasmic ALT-3-01 T1 plants, At chloroplastic ALT-3-01 T1 plants and wild-type Arabidopsis thaliana plants on Sulfometuron-methyl were detected (14 days after sowing), respectively.
(§2) At cytoplasmic ALT-1-01 T1 plants, At chloroplastic ALT-1-01 T1 plants, At cytoplasmic ALT-2-01 T1 plants, At chloroplastic ALT-2-01 T1 plants, At cytoplasmic ALT-3-01 T1 plants, At chloroplastic ALT-3-01 T1 plants and wild-type Arabidopsis thaliana plants were sprayed with Sulfometuron-methyl (30 g ai/ha, 1-fold field concentration) and a blank solvent (water), respectively. Plants were counted for the resistance situations 14 days after spraying: those having a consistent growth status with the blank solvent (water) group after 14 days were classified as highly resistant plants, those having a bolting height less than ½ of that of the blank solvent (water) group after 14 days were classified as moderately resistant plants, those still not capable of bolting after 14 days were classified as poorly resistant plants, and those dead after 14 days were classified as non-resistant plants. Since each Arabidopsis thaliana T1 plant was an independent transformation event, a significant difference in individual T1 responses could be expected at a given dose.
(§3) At cytoplasmic ALT-1-01 T1 plants, At chloroplastic ALT-1-01 T1 plants, At cytoplasmic ALT-2-01 T1 plants, At chloroplastic ALT-2-01 T1 plants, At cytoplasmic ALT-3-01 T1 plants, At chloroplastic ALT-3-01 T1 plants and wild-type Arabidopsis thaliana plants in Example 4 were sprayed with iodosulfuron-methyl (10 g ai/ha, 1-fold field concentration), mesosulfuron (14 g ai/ha, 1-fold field concentration) and oxasulfuron (60 g ai/ha, 1-fold field concentration), respectively, in addition to Sulfometuron-methyl (30 g ai/ha, 1-fold field concentration) and the blank solvent (water). […]

[2] = tested on: transgenic Arabidopsis thaliana T1 plants (ALT-1-01, ALT-2-01, ALT-3-01; cytoplasmic or chloroplastic); experiment: Herbicide tolerance of transgenic Arabidopsis thaliana T1 plants expressing thifensulfuron hydrolase, resistance classes counted after spraying; conditions: for Highly resistant (number of plants with growth status consistent with blank solvent group) / Moderately resistant (number of plants with bolting height less than 1/2 of blank solvent group) / Non-resistant (number of plants dead) / Poorly resistant (number of plants still not capable of bolting): 1-fold field concentration (g ai/ha: Sulfometuron-methyl 30, iodosulfuron-methyl 10, mesosulfuron 14, oxasulfuron 60), 14 days after spraying; for ability of the transformed plants to degrade the herbicide: all the transformed Arabidopsis thaliana T1 plants (ALT-1, ALT-2 and ALT-3), 1-fold field concentration
Description: as §1, §2, §3

[3] = tested on: transgenic soybean plants (Gm cytoplasmic/chloroplastic ALT-1-01, ALT-2-01, ALT-3-01); experiment: Glyphosate tolerance of transgenic soybean plants (ALT + EPSPS), herbicide damage rate; conditions: 840 g ae/ha, 1-fold field concentration, 14 days after spraying
Description: (§4) The herbicide tolerance effects of Gm cytoplasmic ALT-1-01 soybean plants, Gm chloroplastic ALT-1-01 soybean plants, Gm cytoplasmic ALT-2-01 soybean plants, Gm chloroplastic ALT-2-01 soybean plants, Gm cytoplasmic ALT-3-01 soybean plants, Gm chloroplastic ALT-3-01 soybean plants and wild-type soybean plants on glyphosate were detected (at seedling stage), respectively.
(§5) 2 strains from Gm cytoplasmic ALT-1-01 soybean plants, Gm chloroplastic ALT-1-01 soybean plants, Gm cytoplasmic ALT-2-01 soybean plants, Gm chloroplastic ALT-2-01 soybean plants, Gm cytoplasmic ALT-3-01 soybean plants, Gm chloroplastic ALT-3-01 soybean plants and wild-type soybean plants were respectively taken each, and 10-15 plants were selected from each strain and tested. The plants above were sprayed with glyphosate (840 g ae/ha, 1-fold field concentration) and a blank solvent (water). The herbicide damage rate was measured for each plant according to the phytotoxicity symptoms 14 days after spraying (14 DAT): herbicide damage rate (%)=Σ(number of damaged plants at the same level×level number)/(total number of plants×highest level).

[4] = tested on: wild-type soybean plants (CK1); experiment: Glyphosate tolerance of wild-type soybean plants, herbicide damage rate; conditions: 840 g ae/ha, 1-fold field concentration, 14 days after spraying
Description: as §4, §5

[5] = At chloroplastic ALT-1-01 T1 plants
[6] = At chloroplastic ALT-2-01 T1 plants
[7] = At chloroplastic ALT-3-01 T1 plants
[8] = At cytoplasmic ALT-1-01 T1 plants
[9] = At cytoplasmic ALT-2-01 T1 plants
[10] = At cytoplasmic ALT-3-01 T1 plants

Structure (SMILES): COC(=O)c1ccc(I)cc1S(=O)(=O)NC(=O)Nc1nc(C)nc(OC)n1 [iodosulfuron-methyl]
- Highly resistant (number of plants with growth status consistent with blank solvent group) [1]: 0
- Moderately resistant (number of plants with bolting height less than 1/2 of blank solvent group) [1]: 0
- Non-resistant (number of plants dead) [1]: 29
- Poorly resistant (number of plants still not capable of bolting) [1]: 0
- Highly resistant (number of plants with growth status consistent with blank solvent group) [2, 5]: 0
- Moderately resistant (number of plants with bolting height less than 1/2 of blank solvent group) [2, 5]: 0
- Non-resistant (number of plants dead) [2, 5]: 30
- Poorly resistant (number of plants still not capable of bolting) [2, 5]: 0
- Highly resistant (number of plants with growth status consistent with blank solvent group) [2, 6]: 0
- Moderately resistant (number of plants with bolting height less than 1/2 of blank solvent group) [2, 6]: 0
- Non-resistant (number of plants dead) [2, 6]: 31
- Poorly resistant (number of plants still not capable of bolting) [2, 6]: 0
- Highly resistant (number of plants with growth status consistent with blank solvent group) [2, 7]: 0
- Moderately resistant (number of plants with bolting height less than 1/2 of blank solvent group) [2, 7]: 0
- Non-resistant (number of plants dead) [2, 7]: 32
- Poorly resistant (number of plants still not capable of bolting) [2, 7]: 0
- Highly resistant (number of plants with growth status consistent with blank solvent group) [2, 8]: 0
- Moderately resistant (number of plants with bolting height less than 1/2 of blank solvent group) [2, 8]: 0
- Non-resistant (number of plants dead) [2, 8]: 29
- Poorly resistant (number of plants still not capable of bolting) [2, 8]: 0
- Highly resistant (number of plants with growth status consistent with blank solvent group) [2, 9]: 0
- Moderately resistant (number of plants with bolting height less than 1/2 of blank solvent group) [2, 9]: 0
- Non-resistant (number of plants dead) [2, 9]: 30
- Poorly resistant (number of plants still not capable of bolting) [2, 9]: 0
- Highly resistant (number of plants with growth status consistent with blank solvent group) [2, 10]: 0
- Moderately resistant (number of plants with bolting height less than 1/2 of blank solvent group) [2, 10]: 0
- Non-resistant (number of plants dead) [2, 10]: 30
- Poorly resistant (number of plants still not capable of bolting) [2, 10]: 0
- ability of the transformed plants to degrade the herbicide [2]: did not exhibit the ability to degrade

Structure (SMILES): O=C(O)CNCP(=O)(O)O [glyphosate, N-phosphonomethylglycine]
- glyphosate herbicide damage rate ([3]; Gm chloroplastic ALT-1-01 soybean plants): ~0%
- glyphosate herbicide damage rate ([3]; Gm chloroplastic ALT-2-01 soybean plants): ~0%
- glyphosate herbicide damage rate ([3]; Gm chloroplastic ALT-3-01 soybean plants): ~0%
- glyphosate herbicide damage rate ([3]; Gm cytoplasmic ALT-1-01 soybean plants): ~0%
- glyphosate herbicide damage rate ([3]; Gm cytoplasmic ALT-2-01 soybean plants): ~0%
- glyphosate herbicide damage rate ([3]; Gm cytoplasmic ALT-3-01 soybean plants): ~0%
- glyphosate herbicide damage rate [4]: not less than 90%

Structure (SMILES): Cc1cc(C)nc(NC(=O)NS(=O)(=O)c2ccccc2C(=O)OC2COC2)n1 [oxasulfuron]
- Highly resistant (number of plants with growth status consistent with blank solvent group) [1]: 0
- Moderately resistant (number of plants with bolting height less than 1/2 of blank solvent group) [1]: 0
- Non-resistant (number of plants dead) [1]: 28
- Poorly resistant (number of plants still not capable of bolting) [1]: 0
- Highly resistant (number of plants with growth status consistent with blank solvent group) [2, 5]: 0
- Moderately resistant (number of plants with bolting height less than 1/2 of blank solvent group) [2, 5]: 0
- Non-resistant (number of plants dead) [2, 5]: 30
- Poorly resistant (number of plants still not capable of bolting) [2, 5]: 0
- Highly resistant (number of plants with growth status consistent with blank solvent group) [2, 6]: 0
- Moderately resistant (number of plants with bolting height less than 1/2 of blank solvent group) [2, 6]: 0
- Non-resistant (number of plants dead) [2, 6]: 30
- Poorly resistant (number of plants still not capable of bolting) [2, 6]: 0
- Highly resistant (number of plants with growth status consistent with blank solvent group) [2, 7]: 0
- Moderately resistant (number of plants with bolting height less than 1/2 of blank solvent group) [2, 7]: 0
- Non-resistant (number of plants dead) [2, 7]: 31
- Poorly resistant (number of plants still not capable of bolting) [2, 7]: 0
- Highly resistant (number of plants with growth status consistent with blank solvent group) [2, 8]: 0
- Moderately resistant (number of plants with bolting height less than 1/2 of blank solvent group) [2, 8]: 0
- Non-resistant (number of plants dead) [2, 8]: 28
- Poorly resistant (number of plants still not capable of bolting) [2, 8]: 0
- Highly resistant (number of plants with growth status consistent with blank solvent group) [2, 9]: 0
- Moderately resistant (number of plants with bolting height less than 1/2 of blank solvent group) [2, 9]: 0
- Non-resistant (number of plants dead) [2, 9]: 30
- Poorly resistant (number of plants still not capable of bolting) [2, 9]: 0
- Highly resistant (number of plants with growth status consistent with blank solvent group) [2, 10]: 0
- Moderately resistant (number of plants with bolting height less than 1/2 of blank solvent group) [2, 10]: 0
- Non-resistant (number of plants dead) [2, 10]: 30
- Poorly resistant (number of plants still not capable of bolting) [2, 10]: 0
- ability of the transformed plants to degrade the herbicide [2]: did not exhibit the ability to degrade

Structure (SMILES): COc1cc(OC)nc(NC(=O)NS(=O)(=O)c2cc(CNS(C)(=O)=O)ccc2C(=O)O)n1 [mesosulfuron]
- Highly resistant (number of plants with growth status consistent with blank solvent group) [1]: 0
- Moderately resistant (number of plants with bolting height less than 1/2 of blank solvent group) [1]: 0
- Non-resistant (number of plants dead) [1]: 28
- Poorly resistant (number of plants still not capable of bolting) [1]: 0
- Highly resistant (number of plants with growth status consistent with blank solvent group) [2, 5]: 0
- Moderately resistant (number of plants with bolting height less than 1/2 of blank solvent group) [2, 5]: 0
- Non-resistant (number of plants dead) [2, 5]: 32
- Poorly resistant (number of plants still not capable of bolting) [2, 5]: 0
- Highly resistant (number of plants with growth status consistent with blank solvent group) [2, 6]: 0
- Moderately resistant (number of plants with bolting height less than 1/2 of blank solvent group) [2, 6]: 0
- Non-resistant (number of plants dead) [2, 6]: 30
- Poorly resistant (number of plants still not capable of bolting) [2, 6]: 0
- Highly resistant (number of plants with growth status consistent with blank solvent group) [2, 7]: 0
- Moderately resistant (number of plants with bolting height less than 1/2 of blank solvent group) [2, 7]: 0
- Non-resistant (number of plants dead) [2, 7]: 32
- Poorly resistant (number of plants still not capable of bolting) [2, 7]: 0
- Highly resistant (number of plants with growth status consistent with blank solvent group) [2, 8]: 0
- Moderately resistant (number of plants with bolting height less than 1/2 of blank solvent group) [2, 8]: 0
- Non-resistant (number of plants dead) [2, 8]: 29
- Poorly resistant (number of plants still not capable of bolting) [2, 8]: 0
- Highly resistant (number of plants with growth status consistent with blank solvent group) [2, 9]: 0
- Moderately resistant (number of plants with bolting height less than 1/2 of blank solvent group) [2, 9]: 0
- Non-resistant (number of plants dead) [2, 9]: 32
- Poorly resistant (number of plants still not capable of bolting) [2, 9]: 0
- Highly resistant (number of plants with growth status consistent with blank solvent group) [2, 10]: 0
- Moderately resistant (number of plants with bolting height less than 1/2 of blank solvent group) [2, 10]: 0
- Non-resistant (number of plants dead) [2, 10]: 30
- Poorly resistant (number of plants still not capable of bolting) [2, 10]: 0
- ability of the transformed plants to degrade the herbicide [2]: did not exhibit the ability to degrade
